Reference: patent US12419948B2, “Immunogenic compositions and use thereof” (priority 2020, dated 2025)
Where two headings read alike, the source gives them in different places. Where no end group is shown, it is not given here.

Tests used:
Assay in all cases: biochemical
Format in all cases: binding
[1] = biological target: T1, HLA-A*02:01 (Homo sapiens, UniProt P04439, D140Y/D185E/D98H/E176V/E277Q/G131W/G231S/I119V/I121R/I166T/I218V/L300P/L318F/N151K/N90K/P208A/P217A/Q86G/Q94H/R138H/R169H/T345S)
T1 construct: made in house

[2] = biological target: T2, HLA-B*18:01 (Homo sapiens, UniProt P01889, A329T/A93T/A95T/C349S/D201E/D54G/D98Y/E176V/E187T/E204Q/E69T/K202T/Q94N/R155S/R180L/S121R/V306I/Y140S/Y195H/Y33H/Y91S)
T2 construct: made in house

[3] = biological target: T3, HLA-A*01:01 (Homo sapiens, UniProt P04439, A114D/A174V/A182V/D101N/D185E/E176A/E190D/L180R/Q94H/R68K/S129P/T187R/V100A/V91M/W191G); settings: synthetic peptide, purified MHC
T3 construct: made in house

[4] = biological target: HLA-A*26:01 (Homo sapiens, UniProt P04439, A114D/A173T/A270S/D101N/D185E/E277Q/E87N/F33Y/G231S/I121R/I218V/K168Q/L180W/L300P/L318F/P208A/P217A/Q86R/Q94H/R138Q/S129P/T187R/T323A/T345S/V100A/V358M)
[5] = biological target: T4, HLA-B*44:03 (Homo sapiens, UniProt P01889, A223V/A65T/A93T/A95T/D201E/D98Y/E176V/E187L/E204Q/E69K/G107R/H137Y/K202T/L105A/L119I/N104T/N87E/Q56L/Q94N/R106L/R155S/R180L/S101N/S121R/S35A/S48T/T118I/V36M/W191S/Y140D/Y91S); settings: synthetic peptide, purified MHC
T4 construct: made in house

[6] = biological target: T5, HLA-B*51:01 (Homo sapiens, UniProt P01889, A329T/A93T/A95T/C349S/D138N/D201E/D98Y/E187L/E204Q/E69T/G107R/I218V/K202T/L105A/L119W/N104I/Q94N/R106L/R155S/R180L/S101N/S121T/S35A/S48A/V306I/V36M/Y195H/Y91F); settings: synthetic peptide, purified MHC
T5 construct: made in house

[7] = biological target: T6, HLA-B*44:02 (Homo sapiens, UniProt P01889, A223V/A65T/A93T/A95T/D201E/D98Y/E176V/E187L/E204Q/E69K/G107R/H137Y/K202T/L105A/L119I/N104T/N87E/Q56L/Q94N/R106L/R155S/R180D/S101N/S121R/S35A/S48T/T118I/V36M/W191S/Y140D/Y91S); settings: synthetic peptide, purified MHC
T6 construct: made in house

[8] = biological target: T7, HLA-B*15:01 (Homo sapiens, UniProt P01889, A329T/A93T/A95T/C349S/D201E/D98Y/E187L/E204Q/E69M/E70A/K202T/N87E/Q94N/R155S/R180W/S121R/S35A/S48A/V306I/V36M/Y140S/Y91S)
T7 construct: made in house

[9] = read-out: Binding in vitro (IC50, [nM])

Q: GLITLSYHL was tested. Which IC50 ([1]; HLA allele A0201, peptide detected in HEK293T, IC50 <500 nM indicates binding, read-out: Binding in vitro (IC50, [nM])) did it give?
A: Its IC50 is under 0.5 nM.

Q: And the IC50 ([1]; read-out: IC50, binding to HLA-A*02:01)?
A: The IC50 was under 0.5 nM.

Q: APRITFGGP [Peptide 29] was tested. Which IC50 [2] did it give?
A: The IC50 was over 70000 nM.

Q: What about the IC50 [3] of the same sequence?
A: The IC50 was over 70 µM.

Q: And the IC50 [4]?
A: The IC50 was over 70 µM.

Q: And the IC50 [5]?
A: Its IC50 is over 70 µM.

Q: And the IC50 [6]?
A: The IC50 was over 70 µM.

Q: What about the IC50 [7] of the same sequence?
A: Its IC50 is over 70 µM.

Q: And the IC50 [8]?
A: Its IC50 is over 70 µM.

Q: With DEFVVVTV as the sequence, how does the IC50 [2, 9] read?
A: The IC50 was under 0.5 nM.

Q: KNIDGYFKIY was tested. Which IC50 [2, 9] did it give?
A: The IC50 was over 70000 nM.
